Experimental findings from patent US11684650B2, “Composition for preventing, alleviating, or treating cachexia and muscle loss” (CHUNG-ANG UNIVERSITY INDUSTRY ACADEMIC COOPERATION …, priority 2018, dated 2023) are described below.

Holding throughout (format): in vivo, C57BL/6 mice
For experiment [1], the system named is TNF-α, IL-6, MCP-1. Briefly: Serum and muscle inflammatory cytokine ELISA, LLC tumor-bearing mice. The following applies: oral 14 days, extract 100 mg/kg, Megace 125 mg/kg, mean ± standard deviation. As for the experimental part: The mice were divided into a normal group (healthy group), a control group (tumor-induced group), a conventional drug-administered group and a Paeoniae radix extract-administered group, each group consisting of 9 animals. Each animal of the normal group was injected subcutaneously with 100 μl of PBS, and the tumor-induced group (control group), the conventional drug-administered group and the Paeoniae radix extract-administered group were injected subcutaneously with MC38 colorectal cancer cells (1×10^6 cells/100 μl) or Lewis lung carcinoma (LLC) cells (1×10^6 cells/100 μl). When the tumor volume reached about 1,000 mm^3 after 2 weeks of tumor induction, the cancer cachexia treatment agent Megace (megestrol acetate), which is most frequently used in current clinical practice, was administered orally to the conventional drug-administered group. Dose of Megace was 125 mg/kg (=625 mg [daily human dose]/60 kg [human's average body weight]×12 [human/mouse body surface area dose equivalent factor]) for 14 days. Paeoniae radix extract prepared in Example 1 was administered orally to the Paeoniae radix extract-administered group for 14 days at a dose of 100 mg/kg, which is slightly lower than the dose of Megace. During the experiment, the food uptake of each mouse was recorded. In addition, the muscle strength of each mouse was measured with a grip strength test device (Bioseb, USA), and the endurance of each mouse was measured under the condition of maximum exercise time of 600 seconds using a treadmill device (Columbus Instrument, USA).
After completion of the experiment, the mice were euthanized, blood was collected therefrom, and then the tumor weight and the hind limb muscle weight were measured, and the serum and muscle concentrations of TNF-α, IL-6, IL-1 and MCP-1 were quantified by ELISA assay. In addition, the effect of the Paeoniae radix extract on the reduction of muscle atrophy factor (MAFbx) in the hind limb muscle of each LCC cancer-bearing mouse was measured using Western blot and immunofluorescence known in the art.
After the Paeoniae radix extract was administered orally to the mice for 14 days after tumor induction, the mice were euthanized and the serum and muscle concentrations of inflammatory cytokines were measured. As a result, as shown in Table 4 below and FIGS. 2 and 8, the concentrations of tumor-induced inflammatory cytokines increased in the control group (tumor-induced group) compared to the normal (healthy) group.

Experiment [2] has as its system mice with tumors induced by MC38 colorectal cancer cells. The experiment can be described thus: Food intake of MC38 tumor-bearing mice. The following applies: oral 14 days, extract 100 mg/kg, Megace 125 mg/kg, mean ± standard deviation. As for the experimental part: (§1) As experimental animals, 4-week-old male C57BL/6 mice (weighed 18 to 20 g) were purchased from Central Lab Animal Inc., acclimated in a laboratory animal facility for 1 week, and then used in the experiment. During the experiment, the animals were allowed to access feed and water ad libitum, and housed at cages at a temperature of 22±2° C. and a relative humidity of 60±5% under a 12-hr light/12-hr dark cycle.
(§2) The mice were divided into a normal group (healthy group), a control group (tumor-induced group), a conventional drug-administered group and a Paeoniae radix extract-administered group, each group consisting of 9 animals. […] During the experiment, the food uptake of each mouse was recorded. In addition, the muscle strength of each mouse was measured with a grip strength test device (Bioseb, USA), and the endurance of each mouse was measured under the condition of maximum exercise time of 600 seconds using a treadmill device (Columbus Instrument, USA).
(§3) While the Paeoniae radix extract was administered orally to the mice for 14 days after tumor induction, the food intake of the mice was recorded. […]

Experiment [3] relates to IL-6. The experiment can be described thus: Serum and muscle inflammatory cytokine ELISA, MC38 tumor-bearing mice. The following applies: oral 14 days, extract 100 mg/kg, Megace 125 mg/kg, mean ± standard deviation. As for the experimental part: as §2, with “animals. Each animal of the normal group was injected subcutaneously with 100 μl of PBS, and the tumor-induced group (control group), the conventional drug-administered group and the Paeoniae radix extract-administered group were injected subcutaneously with MC38 colorectal cancer cells (1×10^6 cells/100 μl) or Lewis lung carcinoma (LLC) cells (1×10^6 cells/100 μl).” for “animals.”
(§4) After completion of the experiment, the mice were euthanized, blood was collected therefrom, and then the tumor weight and the hind limb muscle weight were measured, and the serum and muscle concentrations of TNF-α, IL-6, IL-1 and MCP-1 were quantified by ELISA assay. […]
After the Paeoniae radix extract was administered orally to the mice for 14 days after tumor induction, the mice were euthanized and the serum and muscle concentrations of inflammatory cytokines were measured. […]

In experiment [4] the test system is Lewis lung carcinoma (LLC) cells. Briefly: Tumor weight, LLC tumor-bearing mice. The following applies: oral 14 days, extract 100 mg/kg, Megace 125 mg/kg, mean ± standard deviation. As for the experimental part:
as §2, with “animals. Each animal of the normal group was injected subcutaneously with 100 μl of PBS, and the tumor-induced group (control group), the conventional drug-administered group and the Paeoniae radix extract-administered group were injected subcutaneously with MC38 colorectal cancer cells (1×10^6 cells/100 μl) or Lewis lung carcinoma (LLC) cells (1×10^6 cells/100 μl).” for “animals.”
as §4
(§5) After the Paeoniae radix extract was administered orally to the mice for 14 days after tumor induction, the mice were euthanized and the tumor weight was measured. […]

Experiment [5] concerns mice with tumors induced by MC38 colorectal cancer cells. Briefly: Grip strength test, MC38 tumor-bearing mice. The following applies: grip strength on day 12 of oral treatment, extract 100 mg/kg, Megace 125 mg/kg, mean ± standard deviation. As to the method: as §2, with “animals. Each animal of the normal group was injected subcutaneously with 100 μl of PBS, and the tumor-induced group (control group), the conventional drug-administered group and the Paeoniae radix extract-administered group were injected subcutaneously with MC38 colorectal cancer cells (1×10^6 cells/100 μl) or Lewis lung carcinoma (LLC) cells (1×10^6 cells/100 μl).” for “animals.”
(§6) On day 12th day of the oral treatment of conventional drug or the Paeoniae radix extract to the tumor-induced mice, the muscle strength and endurance of the mice were measured by a grip strength (g) test and a treadmill running time (sec) test, respectively.

For experiment [6], the system named is MC38 colorectal cancer cells. Briefly: Tumor weight, MC38 tumor-bearing mice. The following applies: oral 14 days, extract 100 mg/kg, Megace 125 mg/kg, mean ± standard deviation. As for the experimental part: as §2, with “animals. Each animal of the normal group was injected subcutaneously with 100 μl of PBS, and the tumor-induced group (control group), the conventional drug-administered group and the Paeoniae radix extract-administered group were injected subcutaneously with MC38 colorectal cancer cells (1×10^6 cells/100 μl) or Lewis lung carcinoma (LLC) cells (1×10^6 cells/100 μl).” for “animals.”
as §4, §5

Experiment [7] has as its system mice with tumors induced by Lewis lung carcinoma (LLC) cells. Briefly: Treadmill running time test, LLC tumor-bearing mice. The following applies: maximum 600 seconds, day 12 of oral treatment, extract 100 mg/kg, Megace 125 mg/kg, mean ± standard deviation. As for the experimental part: as §2, with “animals. Each animal of the normal group was injected subcutaneously with 100 μl of PBS, and the tumor-induced group (control group), the conventional drug-administered group and the Paeoniae radix extract-administered group were injected subcutaneously with MC38 colorectal cancer cells (1×10^6 cells/100 μl) or Lewis lung carcinoma (LLC) cells (1×10^6 cells/100 μl).” for “animals.”
as §6

The test system is the same in experiment [8]. Briefly: Grip strength test, LLC tumor-bearing mice. The following applies: grip strength on day 12 of oral treatment, extract 100 mg/kg, Megace 125 mg/kg, mean ± standard deviation. As to the method: as §2, with “animals. Each animal of the normal group was injected subcutaneously with 100 μl of PBS, and the tumor-induced group (control group), the conventional drug-administered group and the Paeoniae radix extract-administered group were injected subcutaneously with MC38 colorectal cancer cells (1×10^6 cells/100 μl) or Lewis lung carcinoma (LLC) cells (1×10^6 cells/100 μl).” for “animals.”
as §6

Experiment [9] has the same test system. Briefly: Food intake and body weight of LLC tumor-bearing mice. The following applies: oral 14 days, extract 100 mg/kg, Megace 125 mg/kg, mean ± standard deviation. As to the method:
as §1, §2, §3

The subject of experiment [10] is mice with tumors induced by MC38 colorectal cancer cells. The experiment can be described thus: Treadmill running time test, MC38 tumor-bearing mice. The following applies: maximum 600 seconds, day 12 of oral treatment, extract 100 mg/kg, Megace 125 mg/kg, mean ± standard deviation. As for the experimental part:
as §2, with “animals. Each animal of the normal group was injected subcutaneously with 100 μl of PBS, and the tumor-induced group (control group), the conventional drug-administered group and the Paeoniae radix extract-administered group were injected subcutaneously with MC38 colorectal cancer cells (1×10^6 cells/100 μl) or Lewis lung carcinoma (LLC) cells (1×10^6 cells/100 μl).” for “animals.”
as §6

On to `CC(=O)O[C@]1(C(C)=O)CC[C@H]2[C@@H]3C=C(C)C4=CC(=O)CC[C@]4(C)[C@H]3CC[C@@]21C` [Conventional drug, megestrol acetate], for which the “Cytokine concentration, Muscle TNF-α” value in [1] worked out at 21.910 ± 5.414 pg/mL. Moreover, the “Cytokine concentration, Serum IL-6” value was 15.616 ± 8.902 pg/mL in experiment [1] and 49.222 ± 22.762 pg/mL in experiment [3]. In addition, the “Cytokine concentration, Serum MCP-1” value in experiment [1] was 431.670 ± 191.640 pg/mL. In [1], the “Cytokine concentration, Serum TNF-α” value turned out to be 3.302 ± 0.422 pg/mL. The Food intake was 2.607 ± 0.357 g in experiment [2] and 2.891 ± 0.417 g in experiment [9]. Moreover, the “Cytokine concentration, Muscle IL-6” value in [3] was 156.167 ± 29.486 pg/mL. Besides, the Tumor weight in experiment [4] is given as 7.797 ± 2.385 g; in experiment [6] it was 11.747 ± 3.073 g. Besides, the Muscle strength in experiment [5] was found to be 172.065 ± 28.210 g; in [8], 154.883 ± 17.238 g. Also, the results for the Endurance in experiment [7] and in [10] were 338.333 ± 157.322 s and 177.400 ± 60.844 s, respectively.
